One assay deals with T1, CCR-3 (Homo sapiens, UniProt P51677).
T1 sequence (P51677 1-355): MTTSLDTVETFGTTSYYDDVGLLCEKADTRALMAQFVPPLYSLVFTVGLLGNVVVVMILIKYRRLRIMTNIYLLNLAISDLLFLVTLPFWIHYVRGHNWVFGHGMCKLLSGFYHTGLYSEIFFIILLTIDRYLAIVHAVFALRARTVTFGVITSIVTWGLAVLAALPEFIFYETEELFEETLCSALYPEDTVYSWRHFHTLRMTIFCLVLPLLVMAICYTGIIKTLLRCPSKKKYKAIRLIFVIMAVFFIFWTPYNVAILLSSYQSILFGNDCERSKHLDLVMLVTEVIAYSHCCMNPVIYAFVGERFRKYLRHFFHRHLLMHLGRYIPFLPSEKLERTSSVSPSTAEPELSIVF
Kind of assay: Inhibition of eotaxin-induced intracellular calcium mobilization in CCR-3 transfectant cells (CCR3/HEK293). Further details: expressed in transfected cells. As to conditions: compound 6.25 μg/ml, eotaxin 10 nM. It counts as cell-based. Here is the method: Compounds 93-162 used in this assay were synthesized by using the method described in Example 6, and Compounds 168-170 were synthesized by using the method described in Example 6 except for the use of isothiocyanates instead of isocyanates in step 6.
CCR-3 transfectant cells (CCR3/HEK293) were isolated and resuspended with assay buffer (20 mM HEPES, 125 mM NaCl, 5 mM KCl, 0.5 mM glucose, 1 mM CaCl2, 1 mM MgCl2, 0.1% BSA). After washing CCR3/HEK293 cells with assay buffer, cells were loaded with Fura-2/AM in assay buffer for 1 hour at room temperature. Cells were washed and resuspended with assay buffer at 5×10^6 cells/ml in assay buffer, and placed in a tissue culture plate (Falcon, no. 3296). Test compounds dissolved in DMSO were added to the wells, followed by eotaxin (10 nM at final concentration). Cells were excited at 340 nm and 380 nm in a fluorimeter (ARGUS50,FDSS2000, Hamamatsu Photonics) and the relative ratio of the fluorescence emitted at 510 nm was recorded. For a control, DMSO without a test compound was added. Intracellular calcium mobilization was calculated as described in Krogel C. et al., FEBS Let. (1989) 243, 41-46.
Background: Calcium flux is commonly read through the fluorescence of an indicator in the cells.

Assay [1] concerns eosinophil infiltration to BALF. Kind of assay: Eosinophil infiltration to bronchoalveolar lavage fluid (BALF) in OVA-immunized mice. Particulars: OVA-immunized male BALB/c mice, intraperitoneally for 9 days, FIG. 2C. It counts as in vivo. As for the experimental part: (§1) Male BALB/c mice were immunized by an intraperitoneal injection of 10 μg OVA adsorbed to 1 mg aluminum hydroxide gel (alum). A booster injection of the same dose of alum-adsorbed OVA was given 5 days later. Unimmunized control mice received saline.
(§2) Twelve days after primary immunization, both the immunized and unimmunized mice were exposed to aerosolized antigen. Aerosolization of OVA was performed using a nose-only aerosol chamber adapted for mice. Animals were exposed for 10 minutes to 5 mg/ml OVA aerosolized by an ultrasonic nebulizer (NE-U12, Omron, Tokyo, Japan) driven by a vacuum pump. The antigen bronchoprovocation was repeated on day 16 and day 20 under the same conditions. Compound No. 298 (CPD No. 298) was dissolved in saline containing 2% DMSO and 2% Cremophore and administered intraperitoneally for 9 days, starting on the first day of antigen inhalation.
Immediately after the measurement of airway reactivity to acethycholine, BALF was collected by lavaging whole-lung three times with 0.7-ml aliquots of physiological saline containing 0.1% BSA via the tracheal cannula while gently massaging the thorax. The BALF recovered from one mouse was pooled, centrifuged, and the cells were resuspended in 100 μl saline containing 0.1% BSA. Cell numbers were determined using a hemocytometer and 2×10^4 cells were cytecetrifuged onto a glass slide. […]

In assay [2] the test system is collagen-induced arthritis. In words: Type II collagen-induced arthritis in mice, clinical score. Particulars: male DBA/1 mice, 20 mg/kg per day subcutaneously starting at 2nd immunization, versus control vehicle. The assay is classed as in vivo.
Assay [3] has as its system bronchoconstriction provoked by acetylcholine. Kind of assay: Airway hyperreactivity: bronchoconstriction provoked by acetylcholine (murine asthma model). It counts as in vivo. As to conditions: OVA-immunized male BALB/c mice, intraperitoneally for 9 days, FIG. 2A. As for the experimental part:
as §1, §2
Twenty-four hours after the final aerosol exposure, bronchoconstriction was measured by the overflow method of Konzett and Rōssler. […] Bronchoconstriction was recorded on a flatbed recorder (Model FBR-252A, TOA Electronics Ltd., Tokyo, Japan). […]

Consider `O=C(O)CCCN(CCCNC(=S)Nc1ccc(OCc2ccccc2)cc1)C1CCCc2ccccc21` (stereo not shown) [Compound 169], for which the “Ca^2+ mobilization 6.25 μg/ml (inhibition %)” value at CCR-3 is given as 48%.
Same read-out and setting: as for `COc1ccc(NC(=S)NCCCN(CCCC(=O)O)C2CCCc3ccccc32)cc1` (stereo not shown) [Compound 168], the figure is 23%.
`CC[N+](CCCNC(=O)Nc1ccccc1)(CCc1ccc(Cl)cc1)Cc1ccc(Cl)cc1.[I-]` (stereo not shown) [Compound 298, [3-(Phenylureido)propyl][2(4-chlorophenyl)ethyl](4 chlorobenzyl)ethylammonium iodide]: the “eosinophil infiltration to bronchoalveolar lavage fluid (BALF)” value in assay [1] is “significantly suppressed eosinophil infiltration”. In assay [2], the “clinical score of collagen-induced arthritis” value was “marked prevention in clinical score”. Besides, in assay [3], the “bronchoconstriction provoked by acetylcholine” value is “Inhibition of bronchoconstriction”.
As for `O=C(O)CCCN(CCCNC(=O)Nc1ccc(Br)cc1)C1CCCc2ccccc21` (stereo not shown) [Compound 60, 4-[[3-(4-Bromophenylureido)propyl](1,2,3,4-tetrahydro-1-naphthyl)amino]butanoic acid], the “clinical score of collagen-induced arthritis” value in assay [2] is on record as “marked prevention in clinical score”.
As for `O=C(O)CCCN(CCCNC(=S)Nc1ccc(OC(F)(F)F)cc1)C1CCCc2ccccc21` (stereo not shown) [Compound 170], on CCR-3, the “Ca^2+ mobilization 6.25 μg/ml (inhibition %)” value was 45%.

For the origin of these results see patent US6875884B1, “Urea derivatives as inhibitors for CCR-3 receptor” (Kirin Beer Kabushiki Kaisha, priority 1999, dated 2005).
